# From US9468670B2, “Melatonin-based treatment and diagnosis of bile duct disease” (Texas A&M University System, priority 2011, dated 2016)
# Legend:
# [1] = tested on: large mouse cholangiocyte lines; experiment: cAMP levels (RIA) in large mouse cholangiocyte lines; assay type: cell-based; details: preincubation with antagonist (10 mM), melatonin 10^−11 M
# Source text: (§1) The expression of MT1 and MT2 receptors in immortalized large cholangiocytes was first evaluated by immunofluorescence (Francis et al., 2008). Images were visualized using an Olympus IX-71 confocal microscope. For all immunoreactions, negative controls (with normal serum from the same species substituted for the primary antibody) were included. It was next evaluated by commercially available radioimmunoassay (RIA) kits ([…] et al., 1998; Kato et al., 1992; […] et al., 1999; […] et al., 2004) for cAMP levels ([…] et al., 1998; Kato et al., 1992; […] Shiu et al., 2010). […] […] et al., 1992; Ramirez-Rodriguez et al., 2009; […], 1999). […] Shiu et al., 2010) before evaluating by immunoblots (Francis et al., 2008) the expression of PCNA and the phosphorylation of PKA and EKR1/2.
# [2] = tested on: large cholangiocyte lines; experiment: PCNA expression and PKA, ERK1/2 phosphorylation (immunoblots) in immortalized large cholangiocytes; assay type: cell-based, mouse; details: preincubation with antagonist (10 mM), melatonin 10^−11 M, 48 hours
# Source text: as §1
# [3] = tested on: SR, CFTR, Cl−/HCO3− AE2, VEGF-A/C; experiment: Expression of PCNA, SR, CFTR, Cl−/HCO3− AE2, VEGF-A/C in liver sections, liver tissue and cholangiocytes of Morpholino-treated rats; assay type: in vivo, rat; details: normal rats, 1 week
# Experimental: (§2) In separate experiments, normal rats treated with Vivo-Morpholino sequences of AANAT (5′-[…] (SEQ ID NO:1), to reduce the biliary expression of AANAT) or Morpholino mismatched (5′-[…] (SEQ ID NO:2)) (Gene Tools LCC) (1 mg/Kg BW/day) for 1 week via an implanted portal vein catheter. Serum, liver tissue, cholangiocytes, kidney, spleen, small intestine, stomach and heart were collected. Since our goal was to knock-down AANAT expression in the liver without inhibiting AANAT expression in other organs, we used a lower dose (1 mg/Kg/day) of Vivo-Morpholino than that described in the original study (3.0 mg/kg/day (Arora et al., 2002). This approach minimizes the amount of Vivo-Morpholino that circulates outside of the liver after slow infusion into the portal vein. See below for the surgical procedure for the implantation of the portal vein catheter by which AANAT Vivo-Morpholino or Morpholino mismatched was administered.
# By real-time PCR (Francis et al., 2008), the expression of PCNA, SR, CFTR, Cl^−/HCO3^− AE2, VEGF-A/C was evaluated in total RNA from: (i) cholangiocytes from normal rats, and BDL rats treated with melatonin; and (ii) liver tissue and cholangiocytes from rats treated with mismatch or AANAT Vivo-Morpholino for 1 week. A ΔΔCT analysis was obtained using normal cholangiocytes or normal total liver as control samples (Francis et al., 2008). The primers for rat PCNA, SR, CFTR, Cl^−/HCO3^− AE2, VEGF-A/C (SABiosciences) were designed according to the NCBI GenBank Accession numbers: NM_022381 (PCNA); NM_031115 (SR); NM_017048 (Cl^−/HCO3^− AE2); XM_001059206 (CFTR); NM_031836 (VEGF-A); and NM_053653 (VEGF-C). The percentage of cholangiocytes positive for SR, CFTR, Cl^−/HCO3^− AE2 and VEGF-A/C was evaluated in liver sections: when 0%-5% of bile ducts were positive a negative score was assigned; a +/−score was assigned when 6%-10% of ducts were positive; a +score was assigned when 11%-30% of bile ducts were positive (Glaser et al., 2009).
# cholangiocytes = experiment: Biliary proliferation (PCNA, IBDM) and apoptosis (TUNEL) in Morpholino-treated rats; assay type: in vivo, rat; details: normal rats, 1 mg/Kg BW/day for 1 week via portal vein catheter
# Experimental: as §2
# (§3) Biliary proliferation was determined by measurement of the percentage of PCNA-positive cholangiocytes by immunohistochemistry, and intrahepatic bile duct mass (IBDM) by immunohistochemistry for CK-19 (Mancinelli et al., 2010). Biliary apoptosis was evaluated by semiquantitative terminal deoxynucleotidyltransferase biotin-dUTP nick-end labeling (TUNEL) kit (Chemicon International, Inc., Temecula, Calif.) (Mancinelli et al., 2010). IBDM was determined as the area occupied by CK-19 positive-bile duct/total area×100 (Mancinelli et al., 2010). The morphological changes/damage in liver, spleen, kidney, heart, stomach, and small intestine were evaluated from AANAT Vivo-Morpholino- or mismatch-treated rats by H&E staining. The serum levels of the transaminases, glutamate pyruvate transaminases (SGPT) and glutamic oxaloacetic transaminase (SGOT), alkaline phosphatase (ALP) and total bilirubin were evaluated using a Dimension RxL Max Integrated Chemistry system (Dade Behring Inc., Deerfield Ill.), Chemistry Department, Scott & White.
# AANAT = biological target: T1, AANAT (Rattus norvegicus, UniProt Q64666); experiment: Melatonin levels in serum and cholangiocyte supernatant (ELISA) of Morpholino-treated rats; assay type: in vivo; details: normal rats
# T1 construct: the expression of AANAT in liver sections and cholangiocytes from the selected groups of animals; from tissue; host or cells: Male Fischer 344 rats: liver sections, total liver, isolated cholangiocytes, pineal gland, small intestine, serum
# T1 sequence (Q64666 whole entry): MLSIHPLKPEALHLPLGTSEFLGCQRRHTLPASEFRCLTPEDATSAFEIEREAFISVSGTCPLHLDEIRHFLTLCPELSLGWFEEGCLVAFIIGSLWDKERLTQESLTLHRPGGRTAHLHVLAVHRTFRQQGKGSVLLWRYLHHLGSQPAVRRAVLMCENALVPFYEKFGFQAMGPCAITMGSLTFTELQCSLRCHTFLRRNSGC
# Experimental: In separate experiments, normal rats treated with Vivo-Morpholino sequences of AANAT (5'-[…] NO:1), to reduce the biliary expression of AANAT) or Morpholino mismatched (5'-[…] NO:2)) (Gene Tools LCC) (1 mg/Kg BW/day) for 1 week via an implanted portal vein catheter. Serum, liver tissue, cholangiocytes, kidney, spleen, small intestine, stomach and heart were collected. Since our goal was to knock-down AANAT expression in the liver without inhibiting AANAT expression in other organs, we used a lower dose (1 mg/Kg/day) of Vivo-Morpholino than that described in the original study (3.0 mg/kg/day (Arora et al., 2002). This approach minimizes the amount of Vivo-Morpholino that circulates outside of the liver after slow infusion into the portal vein. See below for the surgical procedure for the implantation of the portal vein catheter by which AANAT Vivo-Morpholino or Morpholino mismatched was administered. Melatonin levels in serum and medium of primary cultures of isolated cholangiocytes were determined by ELISA kits (Genway, San Diego, Calif.). Supernatants were obtained from cholangiocytes (1×10^7 cells/ml) that were incubated for 6 hours at 37° C. (Glaser et al., 2008).
# [4] = rat, in vivo, 1 mg/kg/day
# Experimental: as §2, §3
# MT2 vs. the MT1 subtype = details: Shiu et al., 2010; cited from earlier work
Molecule,Prevention of the melatonin-induced decrease in cAMP levels [1],"Prevention of the melatonin-induced decreases in PCNA expression and PKA, ERK2 phosphorylation [2]",Immunoreactivity of cholangiocytes to Cl−HCO3− AE2 [3],Immunoreactivity of cholangiocytes to SR [3],Immunoreactivity of cholangiocytes to VEGF-A [3],% IBDM (cholangiocytes),% PCNA-positive cholangiocytes (cholangiocytes),% apoptotic cholangiocytes (cholangiocytes),"Melatonin supernatant (AANAT; cholangiocyte supernatant, 6 hours at 37° C., 1 mg/Kg BW/day for 1 week)",Melatonin serum (AANAT; 1 mg/Kg BW/day for 1 week via portal vein catheter),ALP [4],SGOT [4],SGPT [4],Total bilirubin [4],Selectivity for the MT2 vs. the MT1 subtype (MT2 vs. the MT1 subtype)
CC(=O)NCCc1c(Cc2ccccc2)[nH]c2ccccc12 [luzindole],prevented,prevented,,,,,,,,,,,,,
"mismatch Morpholino: Morpholino mismatched 5′-GTTCCCGACCTTTGCAACTCGTCCC (SEQ ID NO:2), control for AANAT Vivo-Morpholino (all phosphorodiamidate morpholino (PMO); further chemistry not fully specified)",,,+/− (a +/−score was assigned when 6%-10% of ducts were positive),+/− (a +/−score was assigned when 6%-10% of ducts were positive),+/− (a +/−score was assigned when 6%-10% of ducts were positive),0.30 ± 0.04%,8.00 ± 0.7%,<5%,5.8 ± 0.6 pg/mL,46.4 ± 10.1 pg/mL,230.7 ± 9 Units/L,120.5 ± 10.5 Units/L,67.75 ± 4.6 Units/L,<0.1 mg/L,
"CCC(=O)NC1Cc2ccccc2C(c2ccccc2)C1 (stereo not shown) [4-P-PDOT, 4-Phenyl-2-propionamidotetralin]",not,,,,,,,,,,,,,,> 300 fold
